In brackets after ≈: the same amount, converted by molar mass.

One assay can be described thus: Antioxidant activity assessed as DPPH radical scavenging activity by measuring inhibition rate relative to control. Type of assay: functional. On the set-up: concentration or dose not given beside the values. Particulars: dose or concentration not given here.
Regarding `CSc1nc2nc(N/N=C/c3cccnc3)c3ccccc3n2n1`, the inhibition was found to be 65%.

`CSc1nc2nc(NN)c3ccccc3n2n1`: the inhibition turned out to be 85.9%.

On to `CSc1nc2nc(NNC(=S)NC3CCCCC3)c3ccccc3n2n1`, for which the inhibition is 91.2%.

As to `C=CCNC(=S)NNc1nc2nc(SC)nn2c2ccccc12`, the inhibition is 91%.

As to `CSc1nc2nc(N/N=C(\C)c3ccc([N+](=O)[O-])cc3)c3ccccc3n2n1`, the inhibition stood at 78%.

A further assay in a line: Antioxidant activity assessed as DPPH radical scavenging activity by measuring inhibition rate at 60 ug/ml incubated for 50 mins in dark by UV-Vis spectrophotometric analysis relative to control. The format is functional. Particulars: dose 60.0 µg/ml.
Take `COc1cc(-c2nc3ccc(N4CCOCC4)cc3[nH]2)ccc1O`: the inhibition was determined as 76.1%.

For `COc1cc(-c2nc3ccc(N4CCN(C)CC4)cc3[nH]2)ccc1O`, the inhibition was determined as 63.6%.

For the compound `Oc1ccc(-c2nc3ccc(N4CCOCC4)cc3[nH]2)cc1O`, the inhibition turned out to be 77%.

Consider `CN1CCN(c2ccc3nc(-c4ccc(O)c(O)c4)[nH]c3c2)CC1`, for which the inhibition worked out at 76.8%.

A short description of the next assay: Antioxidant activity assessed as ABTS-radical scavenging activity measured upto 6 mins. Type of assay: functional.
Details: not given
Take `O=C(/C=C/c1ccc(/C=C/C(=O)c2ccc3c(c2)OCO3)cc1)c1ccc2c(c1)OCO2`: the Activity is 220 µg/mL.

Regarding `O=C(/C=C/c1ccc(/C=C/C(=O)c2ccc(Oc3ccccc3)cc2)cc1)c1ccc(Oc2ccccc2)cc1`, the Activity came to 174 µg/mL.

A further assay in a line: Antioxidant activity assessed as DPPH radical scavenging activity incubated for 30 mins under dark condition.
Details: not given
The format is functional.
`CCn1c(-n2cc(/C=N/N=c3/scc(-c4ccc(Br)cc4)n3-c3ccccc3)c(-c3ccc(OC)cc3)n2)nc2c1c(=O)n(C)c(=O)n2C`: the concentration for half-maximal inhibition (IC50) was determined as 4.89 µg/mL (≈ 6.64 µM).

For the compound `CCn1c(-n2cc(/C=N/NC(N)=S)c(-c3ccc(Cl)cc3)n2)nc2c1c(=O)n(C)c(=O)n2C`, the IC50 turned out to be 10.24 µg/mL (≈ 21.1 µM).

As to `CCn1c(-n2cc(/C=N/N=c3\[nH]c(-c4ccc(Br)cc4)cs3)c(-c3ccc(Cl)cc3)n2)nc2c1c(=O)n(C)c(=O)n2C`, the concentration for half-maximal inhibition (IC50) amounted to 5.71 µg/mL (≈ 8.59 µM).

A further assay is described as follows: Antioxidant activity assessed as trolox equivalent of DPPH radical scavenging activity.
Details: not given
Type of assay: functional.
Turning to `O=C(N/N=C/c1cc(Br)ccc1O)c1cc2ccccc2[nH]1`, the Activity is 14.2 µmol/g.

Consider `O=C(N/N=C/c1ccc(O)c(O)c1O)c1cc2ccccc2[nH]1`, for which the Activity amounted to 12800 µmol/g.

With `O=C(N/N=C/c1c(O)cc(O)cc1O)c1cc2ccccc2[nH]1`, the Activity turned out to be 4190 µmol/g.

With `O=C(N/N=C/c1ccccc1O)c1cc2ccccc2[nH]1`, the Activity was determined as 8.71 µmol/g.

Take `O=C(N/N=C/c1ccc(O)cc1O)c1cc2ccccc2[nH]1`: the Activity was found to be 2000 µmol/g.

On to `O=C(N/N=C/c1cc(O)ccc1O)c1cc2ccccc2[nH]1`, for which the Activity turned out to be 9960 µmol/g.

Take `COc1cccc(/C=N/NC(=O)c2cc3ccccc3[nH]2)c1O`: the Activity turned out to be 38.7 µmol/g.

A further assay in a line: Antioxidant activity assessed as BHT equivalent of DPPH radical scavenging activity.
Details: not given
Type of assay: functional.
In the case of `O=C(CCc1ccc(O)cc1)c1c(O)cc(O[C@@H]2O[C@H](CO)[C@@H](O)[C@H](O)[C@H]2O)cc1O`, the Activity was determined as 0.89 mg.

Take `O=C(CCc1ccc(O)cc1)c1c(O)cc(O)cc1O`: the Activity came to 1.27 mg.

The nature of a further assay: Antioxidant activity assessed as DPPH radical scavenging activity at 0.25 mg/ml incubated for 30 mins relative to control.
Details: not given
Type of assay: functional.
Regarding `COc1cc2c(Nc3ccc(O)cc3)c([N+](=O)[O-])cnc2cc1OCCCN1CCC(C)CC1`, the Activity came to 36%.

Another assay is described as follows: Antioxidant activity assessed as trolox equivalent of ABTS-radical scavenging activity. Type of assay: functional.
Details: not given
Consider `Cc1cc(N2CCN(c3cccc(C4CC(=O)c5ccccc5O4)c3)CC2)nc(-c2ccccc2O)n1` (configuration not stated), for which the Activity was 369 µmol/g.

In the case of `COc1ccc2c(=O)cc(-c3ccc(N4CCN(c5nc6ccccc6s5)CC4)cc3)oc2c1`, the Activity was determined as 317 µmol/g.

In the case of `O=C1CC(c2cccc(N3CCN(c4nc5ccccc5s4)CC3)c2)Oc2ccccc21` (configuration not stated), the Activity was found to be 464 µmol/g.

The nature of the next assay: Antioxidant activity by ORAC-FL method.
Details: not given
The format is functional. On the set-up: reference not given here.
Compound `O=c1c2cccc(Cl)c2[se]n1-c1ccc2cccc(O)c2n1` showed an Activity of 0.9 µmol.

Consider `O=c1c2cccc(F)c2[se]n1-c1ccc2cccc(O)c2n1`, for which the Activity was 3.6 µmol.

In the case of `O=c1c2c(C(F)(F)F)cccc2[se]n1-c1ccc2cccc(O)c2n1`, the Activity is 0.2 µmol.

On to `O=c1c2cccc(C(F)(F)F)c2[se]n1-c1ccc2cccc(O)c2n1`, for which the Activity worked out at 0.3 µmol.

Take `O=c1c2c(F)cccc2[se]n1-c1ccc2cccc(O)c2n1`: the Activity came to 2.3 µmol.

A further assay is described as follows: Antioxidant activity assessed as DPPH radical scavenging activity at 1 mg/ml incubated for 30 mins relative to control. The format is functional.
Details: not given
As for `COc1cc2c(Nc3ccc(O)cc3)c([N+](=O)[O-])cnc2cc1OCCCN1CCC(C)CC1`, the Activity was determined as 84%.

Another assay is described as follows: Antioxidant activity assessed as DPPH radical scavenging activity. The format is functional.
Details: not given
Regarding `O=C(/C=C/c1ccc(O)c(O)c1)O[C@H](Cc1ccc(O)c(O)c1)C(=O)O` [ROSMARINIC ACID], the concentration for half-maximal inhibition (IC50) came out at 0.4 µg/mL.

As for `O=C(c1ccc(O)c(O)c1)c1cc(O)c(Br)cc1O`, the half-maximal inhibitory concentration (IC50) was 16.44 µg/mL.

Consider `COc1ccc(-c2nn(-c3ccccc3)cc2/C=C2\SC(=O)N(Cc3ccccc3)C2=O)cc1`, for which the IC50 is 127.18 µg/mL.

Turning to `C[C@H]1O[C@H](O[C@H]2[C@H](O)[C@@H](O)[C@@H](O[C@H]3[C@H](O)[C@@H](O)C(O)O[C@@H]3CO)O[C@@H]2CO)[C@H](O)[C@@H](O)[C@@H]1N[C@H]1C=C(CO)[C@@H](O)[C@H](O)[C@H]1O` (some centres not stated) [ACARBOSE], the IC50 was determined as 81.12 µg/mL.

As to `COC(=O)c1c(O)c2ccccc2c2occc12` [FUROMOLLUGIN], the IC50 amounted to 100 µg/mL.

In the case of `Oc1ccc(Cc2cc(O)c(Br)cc2O)cc1`, the 50% inhibitory concentration (IC50) was found to be 13.86 µg/mL.

With `O=C(O)CN1C(=O)S/C(=C\c2cn(-c3ccccc3)nc2-c2ccccc2)C1=O`, the IC50 came to 128.55 µg/mL.

For the compound `CC1(C)C=Cc2c(C(=O)O)c(O)c3ccccc3c2O1`, the half-inhibitory concentration (IC50) is 42.5 µg/mL.

Turning to `O=C(c1cc(O)c(O)c(O)c1)c1cc(O)c(Br)cc1O`, the IC50 is 14.43 µg/mL.

For the compound `O=C(O)/C=C/c1ccc(O)c(O)c1` [CAFFEIC ACID], the IC50 was found to be 0.8 µg/mL.

In the case of `COC(=O)c1c2c(c3ccccc3c1O)OC(C)(C)C=C2` [MOLLUGIN], the IC50 amounted to 0.7 µg/mL.

Regarding `COc1cc(/C=C/C(=O)CC(=O)/C=C/c2ccc(O)c(OC)c2)ccc1O` [CURCUMIN], the half-inhibitory concentration (IC50) came out at 28 µg/mL.

As for `O=C1S/C(=C\c2cn(-c3ccccc3)nc2-c2ccc(O)cc2)C(=O)N1Cc1ccccc1`, the half-inhibitory concentration (IC50) is 110.88 µg/mL.

For `CNc1cc(/C=C/c2cc(/C=C/c3ccc(OCC(N)=O)c(OC)c3)[nH]n2)ccc1OCC(N)=O`, the half-maximal inhibitory concentration (IC50) was found to be 20 µg/mL.

On to `O=C(/C=C/c1ccc(O)c(O)c1)O[C@@H]1C[C@](O)(C(=O)O)C[C@@H](O)[C@H]1O` [CHLOROGENIC ACID], for which the EC50 stood at 13.8 µg/mL (≈ 38.9 µM).

`O=C(c1ccccc1)c1ccc(O)cc1Br`: the IC50 stood at 19.24 µg/mL.

As for `Oc1cc(Cc2ccccc2)c(O)cc1Br`, the IC50 is 13.32 µg/mL.

Take `O=C(/C=C/c1ccc(O)c(O)c1)O[C@@H]1C[C@@](O)(C(=O)O)C[C@@H](O)[C@@H]1O`: the EC50 was found to be 13.4 µg/mL (≈ 37.8 µM).

The same assay, now with this note: read-out: IC50.
As for `COc1ccccc1[C@H]1NC(C(=O)O)CS1` (some centres not stated), the IC50 is 1500 nM.

Regarding `O=C(O)C1CS[C@@H](c2cccc(Cl)c2Cl)N1` (some centres not stated), the concentration for half-maximal inhibition (IC50) was 930 nM.

Take `O=C(O)C1CS[C@@H](c2cccc(Cl)c2)N1` (some centres not stated): the IC50 was found to be 1520 nM.

Regarding `Cc1ccc([C@H]2NC(C(=O)O)CS2)cc1` (some centres not stated), the IC50 was determined as 1220 nM.

For `O=C(O)C1CS[C@@H](c2ccccc2)N1` (some centres not stated), the IC50 stood at 1540 nM.

For `O=C(O)C1CS[C@@H](c2cccc(F)c2F)N1` (some centres not stated), the IC50 is 830 nM.

For the origin of these results see ChEMBL document CHEMBL5230099, “Free radical scavengers: An overview on heterocyclic advances and medicinal prospects” (Eur J Med Chem, 2020).
